This note sets out measurements from patent US9758538B2, “Pyrimidine derivatives” (PFIZER INC., priority 2015, dated 2017).

truncated PI3Kα (p110α/iSH2 p85α), PI3KA_Act, sequence (P42336 whole entry, the tested form may be a part): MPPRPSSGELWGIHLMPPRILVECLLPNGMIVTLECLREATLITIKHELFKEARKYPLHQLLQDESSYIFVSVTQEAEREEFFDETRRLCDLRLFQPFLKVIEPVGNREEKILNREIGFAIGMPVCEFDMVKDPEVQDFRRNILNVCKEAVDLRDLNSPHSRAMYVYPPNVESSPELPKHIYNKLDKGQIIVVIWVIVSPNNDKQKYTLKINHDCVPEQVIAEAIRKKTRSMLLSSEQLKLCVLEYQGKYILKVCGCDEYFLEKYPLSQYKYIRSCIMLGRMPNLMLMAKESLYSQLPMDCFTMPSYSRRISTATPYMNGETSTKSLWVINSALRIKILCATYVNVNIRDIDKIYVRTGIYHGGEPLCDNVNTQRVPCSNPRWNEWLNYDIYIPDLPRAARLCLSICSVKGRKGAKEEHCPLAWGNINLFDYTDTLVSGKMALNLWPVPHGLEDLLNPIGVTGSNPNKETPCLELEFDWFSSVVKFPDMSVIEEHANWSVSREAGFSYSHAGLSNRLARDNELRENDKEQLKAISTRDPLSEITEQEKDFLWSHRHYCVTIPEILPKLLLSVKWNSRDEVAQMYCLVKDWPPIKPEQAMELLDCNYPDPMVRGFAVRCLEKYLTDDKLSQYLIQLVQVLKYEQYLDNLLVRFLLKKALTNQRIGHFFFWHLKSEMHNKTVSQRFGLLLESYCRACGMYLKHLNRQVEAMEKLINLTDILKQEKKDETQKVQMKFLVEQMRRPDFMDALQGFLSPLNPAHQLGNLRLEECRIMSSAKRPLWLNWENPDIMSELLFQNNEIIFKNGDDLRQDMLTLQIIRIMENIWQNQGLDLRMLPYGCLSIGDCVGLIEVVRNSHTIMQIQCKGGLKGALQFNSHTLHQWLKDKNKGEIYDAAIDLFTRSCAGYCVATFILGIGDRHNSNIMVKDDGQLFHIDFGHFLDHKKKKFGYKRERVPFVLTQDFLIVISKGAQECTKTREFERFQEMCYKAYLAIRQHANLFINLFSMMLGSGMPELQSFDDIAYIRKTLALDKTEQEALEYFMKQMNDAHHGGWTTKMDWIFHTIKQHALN

The target in the first assay is truncated PI3Kα (p110α/iSH2 p85α), PI3KA_Act (Homo sapiens (Human), UniProt P42336). Description: PI3Kα biochemical kinase assay, fluorescence polarization format (PI3KA_Act). The following applies: 0.5 nM p110α/iSH2 p85, 1 mM ATP, 30 μM PIP2, 15-min preincubation; Morrison equation fit; read-out: PI3KA_Act Ki. The procedure:
Enzyme Production for Biochemical Assay: p110α-iSH2 p85α Complex (Full Length p110α and p85α iSH2)(“PI3KA Act”)
Gene encoding p110α subunit was subcloned into polyhedrine promoter while gene encoding p85α niSH2 domains was subcloned into p10 promoter. […] Recombinant baculovirus was generated using Bac-to-Bac protocol (Life Technologies, Carlsbad, Calif.). Large scale expression was conducted in Sf21 (Life Technologies, Carlsbad, Calif.) cells at a multiplicity of infection (“MOI”)=1 for 48 hours. Cells were lyzed in 50 mM Tris pH 8.0, 250 mM NaCl, 5% glycerol, 0.25 mM TCEP, and 20 mM imidazole. The p110α-niSH2 p85α complex was purified from clarified supernatant using Immobilized Metalo Affinity Chromatography (“IMAC”). The protein was eluted from the column using 50 mM Tris pH 8.0, 200 mM NaCl, 0.25 mM TCEP, and 200 mM imidazole. Following elution p110α-niSH2 p85α complex was dialyzed against 4 liters of 50 mM Tris pH 8.0, 200 mM NaCl, 0.25 mM TCEP, and 40 mM imidazole in the presence of PreScission Protease (1:70 molar ratio of Protease to Protein) and TEV protease (1:40 molar ratio protease to protein) for 16 hours at 4° C. The protein was further purified using reverse IMAC to remove cleaved histidine tag and contaminants captured during initial IMAC purification. The mixture of p110α-iSH2 p85α complex and cleaved nSH2 was recovered in reverse IMAC 40 mM imidazole flow through and 60 mM imidazole wash fractions. Those fractions were pulled together and loaded on Superdex 200 26/60 SEC column equilibrated in 25 mM Tris, pH 8.0, 100 mM NaCl, 2% glycerol, and 2 mM TCEP.
The enzymatic reactions were conducted in 50 μL volumes in 96-well plates. […] The reactions were incubated for 30 min at room temperature, stopped with EDTA pH 8 (10 mM final concentration). […] The plate was shaken for 30 minutes and fluorescence polarization values were measured on an LJL Analyst HT plate reader (Molecular Devices, Sunnyvale, Calif.).
On the technique in general: Fluorescence polarisation rises when a labelled molecule tumbles more slowly, as on binding a larger partner.
Usually Ki stands for a dissociation constant, usually derived from enzyme kinetics or from competition with a known ligand. On to `Nc1ncc(-c2cc(N[C@@]3(CO)CCN(C(=O)c4ccccn4)C3)nc(N3CCOCC3)n2)cn1` [Example 63, [(3S)-3-{[2′-amino-2-(morpholin-4-yl)-4,5′-bipyrimidin-6-yl]amino}-3-(hydroxymethyl)pyrrolidin-1-yl](pyridin-2-yl)methanone], for which the Ki came out at 0.062 nM.

Consider `CC(=O)N1CC[C@](C)(Nc2nc(N3CCOCC3)nc(-c3cnc(N)nc3)c2F)C1` [Example 106, 1-[(3S)-3-{[2′-amino-5-fluoro-2-(morpholin-4-yl)-4,5′-bipyrimidin-6-yl]amino}-3-methylpyrrolidin-1-yl]ethanone], for which the Ki was found to be 0.12 nM.

In the case of `Nc1ncc(-c2cc(N[C@@]3(CO)CCN(C(=O)c4cn[nH]c4)C3)nc(N3CCOCC3)n2)cn1` [Example 90, [(3S)-3-{[2′-amino-2-(morpholin-4-yl)-4,5′-bipyrimidin-6-yl]amino}-3-(hydroxymethyl)pyrrolidin-1-yl](1H-pyrazol-4-yl)methanone], the Ki is below 0.018 nM.

Regarding `Nc1ncc(-c2nc(N3CCOCC3)nc(N[C@@]3(CO)CCCN(C(=O)C4(F)CC4)C3)c2F)cn1` [Example 159, [(3S)-3-{[2′-amino-5-fluoro-2-(morpholin-4-yl)-4,5′-bipyrimidin-6-yl]amino}-3-(hydroxymethyl)piperidin-1-yl](1-fluorocyclopropyl)methanone], the Ki came out at 0.102 nM.

Turning to `CC(C)(C)OC(=O)N1CCC(CO)(Oc2cc(-c3cnc(N)nc3)nc(N3CCOCC3)n2)C1` (single isomer, unassigned) [Example 8, tert-butyl 3-{[2′-amino-2-(morpholin-4-yl)-4,5′-bipyrimidin-6-yl]oxy}-3-(hydroxymethyl)pyrrolidine-1-carboxylate], the Ki was below 0.018 nM.

As for `CC(C)S(=O)(=O)N1CC[C@](CO)(Nc2cc(-c3cnc(N)nc3)nc(N3CCOCC3)n2)C1` [Example 52, [(3S)-3-{[2′-amino-2-(morpholin-4-yl)-4,5′-bipyrimidin-6-yl]amino}-1-(propan-2-ylsulfonyl)pyrrolidin-3-yl]methanol], the Ki is 0.084 nM.

Take `CC(C)(C)OC(=O)N1CCC(CF)(Nc2cc(-c3cnc(N)nc3)nc(N3CCOCC3)n2)C1` (stereo not drawn) [Example 110, tert-butyl 3-{[2′-amino-2-(morpholin-4-yl)-4,5′-bipyrimidin-6-yl]amino}-3-(fluoromethyl)pyrrolidine-1-carboxylate]: the Ki came to 0.072 nM.

For `Nc1ncc(-c2cc(N[C@@]3(CO)CCN(C(=O)OCC(F)F)C3)nc(N3CCOCC3)n2)cn1` [Example 79, 2,2-difluoroethyl (3S)-3-{[2′-amino-2-(morpholin-4-yl)-4,5′-bipyrimidin-6-yl]amino}-3-(hydroxymethyl)pyrrolidine-1-carboxylate], the Ki is 0.021 nM.

Turning to `Nc1ncc(-c2cc(NC3(CF)CCN(C(=O)OCc4ccccc4)C3)nc(N3CCOCC3)n2)cn1` (stereo not drawn) [Example 105, benzyl 3-{[2′-amino-2-(morpholin-4-yl)-4,5′-bipyrimidin-6-yl]amino}-3-(fluoromethyl)pyrrolidine-1-carboxylate], the Ki worked out at 0.489 nM.

With `Nc1ncc(-c2cc(N[C@@]3(CO)CCNC3)nc(N3CCOCC3)n2)cn1` [Example 29, [(3S)-3-{[2′-amino-2-(morpholin-4-yl)-4,5′-bipyrimidin-6-yl]amino}pyrrolidin-3-yl]methanol], the Ki stood at 5.88 nM.

In the case of `Cc1ncc(-c2cc(N[C@@]3(CO)CCN(C(=O)OC(C)(C)C)C3)nc(N3CCOCC3)n2)cc1C#N` [Example 125, tert-butyl (3S)-3-{[6-(5-cyano-6-methylpyridin-3-yl)-2-(morpholin-4-yl)pyrimidin-4-yl]amino}-3-(hydroxymethyl)pyrrolidine-1-carboxylate], the Ki is 118 nM.

Regarding `CC(C)(C)OC(=O)N1CC(CO)(Nc2cc(-c3cnc(N)nc3)nc(N3CCOCC3)n2)C1` [Example 41, tert-butyl 3-{[2′-amino-2-(morpholin-4-yl)-4,5′-bipyrimidin-6-yl]amino}-3-(hydroxymethyl)azetidine-1-carboxylate], the Ki came out at 0.128 nM.

Regarding `Nc1ncc(-c2cc(N[C@@]3(CO)CCN(C(=O)[C@H](O)c4ccccc4)C3)nc(N3CCOCC3)n2)cn1` [Example 55, (2R)-1-[(3S)-3-{[2′-amino-2-(morpholin-4-yl)-4,5′-bipyrimidin-6-yl]amino}-3-(hydroxymethyl)pyrrolidin-1-yl]-2-hydroxy-2-phenylethanone], the Ki amounted to 0.371 nM.

For the molecule `Nc1ncc(-c2cc(N[C@@]3(CO)CCN(C(=O)c4ncc[nH]4)C3)nc(N3CCOCC3)n2)cn1` [Example 86, [(3S)-3-{[2′-amino-2-(morpholin-4-yl)-4,5′-bipyrimidin-6-yl]amino}-3-(hydroxymethyl)pyrrolidin-1-yl](1H-imidazol-2-yl)methanone], the Ki turned out to be 0.026 nM.

For the molecule `CN(C)C(=O)CN1CC[C@](CO)(Nc2cc(-c3cnc(N)nc3)nc(N3CCOCC3)n2)C1` [Example 100, 2-[(3S)-3-{[2′-amino-2-(morpholin-4-yl)-4,5′-bipyrimidin-6-yl]amino}-3-(hydroxymethyl)pyrrolidin-1-yl]-N,N-dimethylacetamide], the Ki was found to be 1.48 nM.

In the case of `CC(O)[C@]1(Nc2cc(-c3cnc(N)nc3)nc(N3CCOCC3)n2)CCN(C(=O)OC(C)(C)C)C1` (stereo partly drawn) [Example 10, tert-butyl (3S)-3-{[2′-amino-2-(morpholin-4-yl)-4,5′-bipyrimidin-6-yl]amino}-3-(1-hydroxyethyl)pyrrolidine-1-carboxylate], the Ki was determined as 1.62 nM.

On to `CN(c1cc(-c2cnc(N)nc2)nc(N2CCOCC2)n1)C1(CO)CCN(C(=O)OC(C)(C)C)C1` (single isomer, unassigned) [Example 27, tert-butyl 3-{[2′-amino-2-(morpholin-4-yl)-4,5′-bipyrimidin-6-yl](methyl)amino}-3-(hydroxymethyl)pyrrolidine-1-carboxylate], for which the Ki was 0.717 nM.

On to `Nc1ncc(-c2cc(N[C@@]3(CO)CCN(C(=O)NCC(F)(F)F)C3)nc(N3CCOCC3)n2)cn1` [Example 133, (3S)-3-{[2′-amino-2-(morpholin-4-yl)-4,5′-bipyrimidin-6-yl]amino}-3-(hydroxymethyl)-N-(2,2,2-trifluoroethyl)pyrrolidine-1-carboxamide], for which the Ki stood at 0.795 nM.

Turning to `Nc1ncc(-c2nc(N3CCOCC3)nc(N[C@]3(CO)CCCNC3)c2F)cn1` [Example 144, [(3R)-3-{[2′-amino-5-fluoro-2-(morpholin-4-yl)-4,5′-bipyrimidin-6-yl]amino}piperidin-3-yl]methanol], the Ki is 13.9 nM.

With `Nc1ncc(-c2cc(N[C@@]3(CO)CCN(C(=O)NCC(F)F)C3)nc(N3CCOCC3)n2)cn1` [Example 131, (3S)-3-{[2′-amino-2-(morpholin-4-yl)-4,5′-bipyrimidin-6-yl]amino}-N-(2,2-difluoroethyl)-3-(hydroxymethyl)pyrrolidine-1-carboxamide], the Ki turned out to be 0.205 nM.

Staying with this assay, now noted: PI3KA_Act Ki (nM), 0.5 nM p110α/iSH2 p85, 1 mM ATP, 30 μM PIP2, 15-min preincubation; Morrison equation fit.
`C[C@H]1COCCN1c1nc(N[C@@]2(CO)CCN(C(=O)OCC(F)F)C2)c(F)c(-c2cnc(N)nc2)n1` [Example 119, 2,2-difluoroethyl (3S)-3-({2′-amino-5-fluoro-2-[(3S)-3-methylmorpholin-4-yl]-4,5′-bipyrimidin-6-yl}amino)-3-(hydroxymethyl)pyrrolidine-1-carboxylate] gave a Ki below 0.018 nM.
